Measured values: patent EP4644391A1, “NOVEL PHENYLQUINOLONE COMPOUND HAVING ANTIBACTERIAL AND ANTICANCER FUNCTIONS, AND PREPARATION THEREOF” (Alphamol Science Ltd (Shanghai), priority 2022, dated 2024)
Values after ≈ are worked out from the molar mass of the structure shown. Like-named read-outs stand apart in the source and are kept apart here.

How the values were obtained:
Format in all cases: cell-based
Hela = experiment: In vitro anticancer activity test (MTT cell proliferation assay); conditions: Homo sapiens, average proliferation inhibition rate at the dosage of 40 µM
Protocol: The anticancer activity of the compounds was tested using an in vitro cancer cell tests. The specific test method is as follows: • 1. Cell recovery and culture method: the cryovial was taken out from the liquid nitrogen container firstly, soaked directly in 37°C warm water, and shaked from time to time to let it thaw as soon as possible. Then, the cryovial was transferred to a clean bench, and the lid was open. The cell suspension was taken into a centrifuge tube using a rubber-tipped dropper and more than 10 times the culture medium was added, mixed well, and centrifuged at 50g for 5 minutes. Then, the supernatant was discarded, complete culture medium containing 10% fetal bovine serum was added to resuspend the cells, the cells was counted, the cell density was adjusted, and then inoculated into a culture bottle. The culture bottle was placed in a cell culture incubator at 5% CO2 and 37°C. The complete culture medium was replaced once the next day and the culture was continued. • 2. Cell passaging method: adherent cells in the logarithmic growth phase were placed in a clean bench, the original culture medium was discarded, and washed three times with 1×PBS. An appropriate amount of 0.25% trypsin digestion solution was added to moisten the cells, and then the trypsin solution was aspirated. The cells were placed in a cell culture incubator at 5% CO2 and 37°C for digestion for a suitable time, and observed under a microscope. When 90% of the cells become round, the cells were moved immediately to the clean bench and complete culture medium was added to terminate digestion. Then, the cells were dislodged by pipetting up and down with a rubber-tipped dropper to single cells. The cells were counted, and the cell density was adjusted. The cells were inoculated into a suitable culture bottle or dish, added enough complete culture medium, and placed in a cell culture incubator at 5% CO2 and 37°C for static culture. For suspension cells in the logarithmic phase, the original culture medium was directly centrifuged at 50g for 5 minutes, the supernatant was discarded, and the cells were washed once with PBS and centrifuged. After discarding the supernatant, the complete culture medium was added and the cells were dispersed using a rubber-tipped dropper. The cells are counted, and the cell density was adjusted. The cells were inoculated into appropriate culture bottles or culture dishes, and sufficient complete culture medium was added, and the cells were cultured in a cell culture incubator at 5% CO2 and 37°C. • 3. Cell proliferation assay: cells in good state in logarithmic phase were taken and appropriate amount of the cells was inoculated into 96-well plates according to the cell passage treatment method, with each well containing 180 µL complete medium. After the cells growth was recovered and the number of cells in each well is 5000±500, a drug was added for treatment. After drug treatment during the experimental time, MTT solution with a final concentration of 0.5 mg/mL was added to each well, and placed in a cell culture incubator at 5% CO2 and 37°C to allow a fully reaction of MTT with cells. After 4 hours, the solution in the 96-well plate was discarded, 100 µL of DMSO was added, and shaked to dissolve the formazan precipitated at the bottom of the plate, and the absorbance value of samples was detected at a wavelength of 570 nm using a microplate reader. Calculation method of cell viability rate: Viability rate = A sample group÷A control group × 100% [formula] • 4. Cell photography step: cells in good state in logarithmic phase were taken and an appropriate amount of cells was inoculated into 96-well plates according to the cell passage treatment method, with each well containing 180 µL complete medium. After the cells growth was recovered and the number of cells in each well is 5000 ± 500, a drug was added for treatment. […]

A. baumannii ATCC 17978 = experiment: In vitro antibacterial activity assay (MIC, broth dilution); conditions: Acinetobacter baumannii, ATCC17978; Table 2; 37°C, 16 hours; read-out: G- bacteria MIC A. baumannii ATCC 17978
From the text: (§1) The method used to indicate the activity of the compounds in this example is to record the minimum inhibitory concentration (MIC) of the compounds against bacteria. The specific experimental method is as follows: • 1. The bacterial liquid cultured from a single colony was taken, and diluted into autoclaved CAMHB broth in a ratio of 1:1000, and mixed well. • 2. The prepared drug solution was filtered through a sterile 0.22µm syringe filter and placed in a sterile EP tube for later use. • 3. A 96-well plate was taken, and 20µL of drug solution (400µg/mL) was added to each well in the first column of the 96-well plate. Then, 180µL of diluted bacterial liquid was added and mixed well (Perform 3 replicate rows for each drug). The same process was performed for the hydrochloride drug. • 4. 100 µL of diluted bacterial liquid was added to each well in the remaining 11 columns of the 96-well plate. Drugs are the same as above. • 5. Serial dilution: 100µL of liquid was taken from the first column to the second column, mixed well, then 100µL of liquid was taken from the second column to the third column, mixed well, and so on, sequentially diluting down to the last column (column 12). After mixing column 12 well, 100µL of liquid thereof was discarded. The drug concentration in each well was decreased by two-fold serially (the concentration in the first well is 40µg/mL). • 6. Blank CAMHB broth without added bacteria liquid was added to 3 blank wells in the 96-well plate, as negative control. • 7. The diluted bacterial liquid was added to 3 blank wells in the 96-well plate, as positive control. • 8. Incubated at 37°C for 16 hours. • 9. Results reading: the minimum inhibitory concentration is the minimum drug concentration at which no bacterial growth is visible to the naked eye and without turbidity.

P.aeruginosa ATCC 27853 = experiment: as above; conditions: Pseudomonas aeruginosa, ATCC27853; Table 2; 37°C, 16 hours; read-out: G- bacteria MIC P.aeruginosa ATCC 27853
From the text: as §1

E. coli ATCC 25922 = experiment: as above; conditions: Escherichia coli, ATCC25922
From the text: as §1

S. aureus ATCC 43300 = experiment: as above; conditions: Staphylococcus aureus
From the text: as §1

E. feacium ATCC 700221 = experiment: as above; conditions: read-out: G+ bacteria MIC E. feacium ATCC 700221
From the text: as §1

[1] = Table 2, 37°C, 16 hours, read-out: G- bacteria MIC E. coli ATCC 25922
[2] = Table 3, read-out: E. coli ATCC 25922 MIC
[3] = ATCC43300, Table 3, read-out: S. aureus ATCC 43300 MIC
[4] = ATCC43300, Table 1, 37°C, 16 hours, read-out: G+ bacteria MIC S. aureus ATCC 43300

MIC (A. baumannii ATCC 17978) [mg/L]	MIC (P.aeruginosa ATCC 27853) [mg/L]	MIC (E. coli ATCC 25922; [1]) [mg/L]	MIC (E. coli ATCC 25922; [2]) [mg/L]	MIC (S. aureus ATCC 43300; [3]) [mg/L]	MIC (E. feacium ATCC 700221; Table 1, 37°C, 16 hours) [mg/L]	MIC (S. aureus ATCC 43300; [4]) [mg/L]	SMILES	inhibition at 40 µM (Hela) [%]	further results
0.1 to 1 (≈ 0.224 to 2.24 µM)	0.1 to 1 (≈ 0.224 to 2.24 µM)	≤ 0.1	–	–	1 to 8 (≈ 2.24 to 17.9 µM)	≤ 0.1	O=C(O)c1cn(C2CC2)c2cc(-c3ccc(S(=O)(=O)NCCO)cc3)c(F)cc2c1=O [Example 13, 1-cyclopropyl-6-fluoro-7-(4-(N-(2-hydroxyethyl)sulfamoyl)phenyl)-4-oxo-1,4-dihydroquinolin-3-carboxylic acid]	–	–
–	–	–	≥ 1	≤ 1	–	–	CCCCCCCNS(=O)(=O)c1ccc(-c2cc3c(cc2F)c(=O)c(C(=O)O)cn3C2CC2)cc1 [Example 101]	≥ 50	–
–	–	–	≥ 1	≤ 1	–	–	CCCCCCCNS(=O)(=O)c1ccc(-c2cc3c(cc2F)c(=O)c(C(=O)O)cn3-c2ccc(F)cn2)cc1 [Example 19, 6-fluoro-1-(5-fluoropyridin-2-yl)-7-(4-(N-heptylsulfamoyl)phenyl)-4-oxo-1,4-dihydroquinolin-3-carboxylic acid]	≥ 50	–
≤ 0.1	0.1 to 1 (≈ 0.195 to 1.95 µM)	≤ 0.1	–	–	1 to 8 (≈ 1.95 to 15.6 µM)	≤ 0.1	N#Cc1cc(-c2cc3c(cc2F)c(=O)c(C(=O)O)cn3C2CC2)ccc1S(=O)(=O)NC1CCOCC1 [Example 5, 7-(3-cyano-4-(N-(tetrahydro-2H-pyran-4-yl)sulfamoyl)phenyl)-1-cyclopropyl-6-fluoro-4-oxo-1,4-dihydroquinolin-3-carboxylic acid]	–	–
–	–	–	–	–	> 8	≤ 0.1	CCCNS(=O)(=O)c1ccc(-c2c(F)cc3c(=O)c(C(=O)O)cn(C4CC4)c3c2Cl)cn1 [Example 15, 8-chloro-1-cyclopropyl-6-fluoro-4-oxo-7-(6-(N-propylsulfamoyl)pyridin-3-yl)-1,4-dihydroquinolin-3-carboxylic acid]	–	–
–	–	–	≥ 1	≤ 1	–	–	CCCCCCCNS(=O)(=O)c1ccc(-c2cc3c(cc2F)c(=O)c(C(=O)O)cn3C2CC2)cc1C(F)(F)F [Example 132]	≥ 20	–
–	–	–	≥ 1	≤ 1	–	–	CCCCCCCNS(=O)(=O)c1ccc(-c2cc3c(cc2F)c(=O)c(C(=O)O)cn3-c2ccc(F)cc2)cc1 [Example 12, 6-fluoro-1-(4-fluorophenyl)-7-(4-(N-heptylsulfamoyl)phenyl)-4-oxo-1,4-dihydroquinolin-3-carboxylic acid]	≥ 50	–
≤ 0.1	0.1 to 1 (≈ 0.295 to 2.95 µM)	≤ 0.1	–	–	–	–	Nc1cc(-c2cc3c(cc2F)c(=O)c(C(=O)O)cn3C2CC2)ccn1 [Example 50]	–	–

More lines, now with the values behind:

SMILES	MIC (A. baumannii ATCC 17978) [mg/L]	MIC (P.aeruginosa ATCC 27853) [mg/L]	MIC (E. coli ATCC 25922; [1]) [mg/L]	MIC (E. coli ATCC 25922; [2]) [mg/L]	MIC (S. aureus ATCC 43300; [3]) [mg/L]	MIC (E. feacium ATCC 700221; Table 1, 37°C, 16 hours) [mg/L]	MIC (S. aureus ATCC 43300; [4]) [mg/L]	inhibition at 40 µM (Hela) [%]	further results
Nc1cc(-c2c(F)cc3c(=O)c(C(=O)O)cn(C4CC4)c3c2F)ccc1C(=O)NCC(F)(F)F [Example 43]	0.1 to 1 (≈ 0.208 to 2.08 µM)	0.1 to 1 (≈ 0.208 to 2.08 µM)	≤ 0.1	≤ 1	≤ 1	–	–	≥ 20	–
COc1c(-c2ccc(N)c([N+](=O)[O-])c2)c(F)cc2c(=O)c(C(=O)NO)cn(C3CC3)c12 [Example 138]	–	–	–	≥ 1	≤ 1	–	–	≥ 50	–
NS(=O)(=O)c1ccc(-c2c(F)cc3c(=O)c(C(=O)O)cn(C4CC4)c3c2Cl)cc1[N+](=O)[O-] [Example 4, 8-chloro-1-cyclopropyl-6-fluoro-7-(3-nitro-4-sulfamoyphenyl)-4-oxo-1,4-dihydroquinolin-3-carboxylic acid]	0.1 to 1 (≈ 0.208 to 2.08 µM)	0.1 to 1 (≈ 0.208 to 2.08 µM)	≤ 0.1	–	–	1 to 8 (≈ 2.08 to 16.6 µM)	≤ 0.1	–	–
COc1c(N2C[C@@H]3CCCN[C@@H]3C2)c(F)cc2c(=O)c(C(=O)O)cn(C3CC3)c12 [Moxifloxacin, reference compound]	≤ 0.1	1 to 8 (≈ 2.49 to 19.9 µM)	≤ 0.1	–	–	> 8	≤ 0.1	–	–
COc1c(-c2ccc(NC(=O)C(F)(F)F)c([N+](=O)[O-])c2)c(F)cc2c(=O)c(C(=O)O)cn(C3CC3)c12 [Example 30, 1-cyclopropyl-6-fluoro-8-methoxy-7-(3-nitro-4-(2,2,2-triifluoroacetamido)phenyl)-4-oxo-1,4-dihydroquinolin-3-carboxylic acid]	0.1 to 1 (≈ 0.196 to 1.96 µM)	0.1 to 1 (≈ 0.196 to 1.96 µM)	≤ 0.1	–	–	–	–	–	–
O=C(O)c1cn(C2CC2)c2c([N+](=O)[O-])c(-c3ccc(NC(=O)C(F)(F)F)c([N+](=O)[O-])c3)c(F)cc2c1=O [Example 32]	–	–	–	–	–	1 to 8 (≈ 1.91 to 15.3 µM)	≤ 0.1	–	–
O=C(O)c1cn(C2CC2)c2cc(-c3ccc(S(=O)(=O)NCCCl)cc3)c(F)cc2c1=O [Example 10, 7-(4-(N-(2-chloroethyl)sulfamoyl)phenyl)-1-cyclopropyl-6-fluoro-4-oxo-1,4-dihydroquinolin-3-carboxylic acid]	–	–	–	–	–	–	–	–	MIC (E. feacium ATCC 700221; 16 h): > 8 mg/L; MIC (S. aureus ATCC 43300; ATCC43300, 16 h, read-out: G+ bacteria MIC S. aureus ATCC 43300): ≤ 0.1 mg/L
Nc1ccc(-c2c(F)cc3c(=O)c(C(=O)NO)cn(C4CC4)c3c2Cl)cc1[N+](=O)[O-] [Example 64]	–	–	–	≥ 1	≤ 1	–	–	≥ 20	–
COc1cc(-c2cc3c(cc2F)c(=O)c(C(=O)O)cn3C2CC2)ccc1NC(=O)C(C)(C)C [Example 65]	–	–	–	≥ 1	≤ 1	–	–	≥ 50	–
Cc1c(-c2ccc(C(=O)NCC(C)(C)C)c(N)c2)c(F)cc2c(=O)c(C(=O)O)cn(C3CC3)c12 [Example 49]	–	–	–	–	–	1 to 8 (≈ 2.15 to 17.2 µM)	≤ 0.1	–	–
O=C(O)c1cn(C2CC2)c2cc(-c3ccc(NC(=O)C(F)(F)F)c([N+](=O)[O-])c3)c(F)cc2c1=O [Example 35]	≤ 0.1	0.1 to 1 (≈ 0.209 to 2.09 µM)	≤ 0.1	–	–	–	–	–	–
CC(C)(C)OC(=O)Nc1ccc(-c2cc3c(cc2F)c(=O)c(C(=O)O)cn3C2CC2)cc1[N+](=O)[O-] [Example 40]	–	–	–	≥ 1	≤ 1	–	–	≥ 50	–
